In the supplement of paper PMC10307832:

Experiments:
Experiment in all cases: relative viability (nuclei count vs DMSO), 5 days (fraction); higher = more cells survive
NCI-H661 = test system: NCI-H661
In short: (§1)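 Medians of duplicate plates are given as relative viability. That measure is the nuclei count in treated wells divided by the count in vehicle wells. Counts were taken on 4× images of lung cancer cell lines in 1536-well plates, 5 days after pin-tool dosing the day after seeding with one drug alone or a fixed anchor-drug dose plus five library-drug doses (not always all listed) in √10 steps.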

NCI-H2009 = test system: NCI-H2009
In short: as §1

CAL-12T = test system: CAL-12T
In short: as §1

HCC-366 = test system: HCC-366
In short: as §1

NCI-H3122 = test system: NCI-H3122
In short: as §1

NCI-H1437 = test system: NCI-H1437
In short: as §1

NCI-H1666 = test system: NCI-H1666
In short: as §1

LK-2 = test system: LK-2
In short: as §1

NCI-H727 = test system: NCI-H727
In short: as §1

ABC-1 = test system: ABC-1
In short: as §1

EKVX = test system: EKVX
In short: as §1

NCI-H2170 = test system: NCI-H2170
In short: as §1

HARA = test system: HARA
In short: as §1

201T = test system: 201T
In short: as §1

SW 900 = test system: SW 900
In short: as §1

PC-14 = test system: PC-14
In short: as §1

COR-L 105 = test system: COR-L 105
In short: as §1

BEN = test system: BEN
In short: as §1

NCI-H441 = test system: NCI-H441
In short: as §1

NCI-H2023 = test system: NCI-H2023
In short: as §1

LU99A = test system: LU99A
In short: as §1

NCI-H838 = test system: NCI-H838
In short: as §1

NCI-H1650 = test system: NCI-H1650
In short: as §1

COR-L23 = test system: COR-L23
In short: as §1

With `CC(C)Oc1cc(Nc2nc(N[C@@H](C)c3ccc(F)cn3)ncc2Cl)n[nH]1` [AZ23] + Cc1cc(Nc2cc(N3CCN(C)CC3)nc(Sc3ccc(NC(=O)C4CC4)cc3)n2)n[nH]1 [Tozasertib] (partner 0.1 µM) the relative viability (NCI-H661; first compound 0.01 µM) was 0.366, the relative viability (NCI-H661; first compound 0.03162 µM) was 0.354 and the relative viability (NCI-H661; first compound 0.3162 µM) was 0.353. For the same compound, the relative viability (NCI-H2009; first compound 0.01 µM) was 0.755, the relative viability (NCI-H2009; first compound 0.03162 µM) was 0.912 and the relative viability (NCI-H2009; first compound 0.3162 µM) was 0.91. It also gave a relative viability (CAL-12T; first compound 0.03162 µM) of 0.342, a relative viability (CAL-12T; first compound 0.3162 µM) of 0.241 and a relative viability (HCC-366; first compound 0.01 µM) of 0.114. The relative viability (HCC-366; first compound 0.03162 µM) was 0.152, the relative viability (HCC-366; first compound 0.3162 µM) was 0.234 and the relative viability (NCI-H3122; first compound 0.01 µM) was 0.504. The relative viability (NCI-H3122; first compound 0.03162 µM) was 0.456, the relative viability (NCI-H3122; first compound 0.3162 µM) was 0.52 and the relative viability (NCI-H1437; first compound 0.01 µM) was 0.434. For the same compound, the relative viability (NCI-H1437; first compound 0.03162 µM) was 0.449, the relative viability (NCI-H1437; first compound 0.3162 µM) was 0.413 and the relative viability (NCI-H1666; first compound 0.01 µM) was 0.558. It also gave a relative viability (NCI-H1666; first compound 0.03162 µM) of 0.583, a relative viability (NCI-H1666; first compound 0.3162 µM) of 0.545 and a relative viability (LK-2; first compound 0.01 µM) of 0.184. It also gave a relative viability (LK-2; first compound 0.03162 µM) of 0.222, a relative viability (LK-2; first compound 0.3162 µM) of 0.195 and a relative viability (NCI-H727; first compound 0.01 µM) of 0.754. It also gave a relative viability (NCI-H727; first compound 0.03162 µM) of 0.679, a relative viability (NCI-H727; first compound 0.3162 µM) of 0.37 and a relative viability (ABC-1; first compound 0.01 µM) of 0.192. The relative viability (ABC-1; first compound 0.03162 µM) was 0.201, the relative viability (ABC-1; first compound 0.3162 µM) was 0.195 and the relative viability (EKVX; first compound 0.01 µM) was 0.471. The relative viability (EKVX; first compound 0.03162 µM) was 0.458, the relative viability (EKVX; first compound 0.3162 µM) was 0.407 and the relative viability (NCI-H2170; first compound 0.01 µM) was 0.836. For the same compound, the relative viability (NCI-H2170; first compound 0.03162 µM) was 0.752, the relative viability (NCI-H2170; first compound 0.3162 µM) was 0.831 and the relative viability (HARA; first compound 0.03162 µM) was 0.0837. The relative viability (HARA; first compound 0.3162 µM) was 0.11, the relative viability (201T; first compound 0.01 µM) was 1.03 and the relative viability (201T; first compound 0.03162 µM) was 0.968. The relative viability (201T; first compound 0.3162 µM) was 0.985, the relative viability (SW 900; first compound 0.01 µM) was 0.536 and the relative viability (SW 900; first compound 0.03162 µM) was 0.654. It also gave a relative viability (SW 900; first compound 0.3162 µM) of 0.532, a relative viability (PC-14; first compound 0.01 µM) of 0.428 and a relative viability (PC-14; first compound 0.03162 µM) of 0.656. For the same compound, the relative viability (PC-14; first compound 0.3162 µM) was 0.696, the relative viability (COR-L 105; first compound 0.01 µM) was 0.375 and the relative viability (COR-L 105; first compound 0.03162 µM) was 0.447. The relative viability (COR-L 105; first compound 0.3162 µM) was 0.365, the relative viability (BEN; first compound 0.01 µM) was 0.483 and the relative viability (BEN; first compound 0.03162 µM) was 0.544. For the same compound, the relative viability (BEN; first compound 0.3162 µM) was 0.527, the relative viability (NCI-H441; first compound 0.01 µM) was 0.813 and the relative viability (NCI-H441; first compound 0.03162 µM) was 0.782. It also gave a relative viability (NCI-H441; first compound 0.3162 µM) of 0.609, a relative viability (NCI-H2023; first compound 0.03162 µM) of 0.457 and a relative viability (NCI-H2023; first compound 0.3162 µM) of 0.46. It also gave a relative viability (LU99A; first compound 0.01 µM) of 0.243, a relative viability (LU99A; first compound 0.03162 µM) of 0.286 and a relative viability (LU99A; first compound 0.3162 µM) of 0.296. For the same compound, the relative viability (NCI-H838; first compound 0.01 µM) was 0.267, the relative viability (NCI-H838; first compound 0.03162 µM) was 0.301 and the relative viability (NCI-H838; first compound 0.3162 µM) was 0.274. It also gave a relative viability (NCI-H1650; first compound 0.03162 µM) of 0.433, a relative viability (NCI-H1650; first compound 0.3162 µM) of 0.45 and a relative viability (COR-L23; first compound 0.01 µM) of 0.135. The relative viability (COR-L23; first compound 0.03162 µM) was 0.231 and the relative viability (COR-L23; first compound 0.3162 µM) was 0.205.
